Earlier results, collected in patent publication US4303671A, “Albumin stabilized prostacyclin” (priority 1980, dated 1981).

Key:
[1] = under acid conditions, including at physiological pH's
[2] = human plasma and human serum albumin; FASEB Meeting abstract, 1980
[3] = kept in whole blood or plasma; The Lancet, July 29, 1978
[4] = system: blood platelet aggregation; conditions: at the time of its discovery
[5] = FEBS Letters 82:321-324 (1977)

| Structure (SMILES) | chemical stability (in words) [1] | stabilization by albumin (in words) [2] | protection against degradation (in words) [3] | potency to inhibit blood platelet aggregation (in words) [4] | stabilization of thromboxane A2 by albumin (in words) [5] |
| --- | --- | --- | --- | --- | --- |
| CCCCC[C@H](O)/C=C/[C@@H]1[C@H]2C/C(=C/CCCC(=O)O)O[C@H]2C[C@H]1O [prostacyclin, 9-deoxy-6,9α-epoxy-(5Z)-5,6-didehydro-PGF1] | spontaneously decomposes to 6-oxo-PGF1α | albumin stabilizes prostacyclin | probably protected against degradation when kept in whole blood or plasma | most potent prostaglandin-related substance effective to inhibit blood platelet aggregation | – |
| CCCCC[C@H](O)/C=C/[C@H]1O[C@H]2C[C@H](O2)[C@@H]1C/C=C\CCCC(=O)O [thromboxane A2] | – | – | – | – | ability to stabilize thromboxane A2 |
